Like-named read-outs stand apart in the source and are kept apart here.
Legend:
[1] = system: NCI-N87 stomach cancer cell line; test: Cell growth inhibition assay, NCI-N87 (CellTiter-Glo); format: cell-based; conditions: Homo sapiens; NCI-N87, 5,000 cells/well, 96 hours
Method: The inhibitory effects of the compounds of the present invention against the growth of cancer cells were evaluated as shown below. The cancer cell lines including prostate cancer cell lines (LNCaP, DU-145), stomach cancer cell line (NCI-N87), and breast cancer cell lines (MDA-MB-468) were cultured under the protocol provided by each supplier. A medium supplemented with 10 ng/mL of IL-6 was used for LNCaP, a prostate cancer cell line, when treated with a drug. Each type of cells to be used in experiments was sub-cultured in a 96-well plate by counting the exact number of cells using Tali™ Image-based Cytometer (Life Technologies). In a 96-well plate, DU-145 was employed with 3,000 cells/well; NCI-N87 was employed with 5,000 cells/well; and LNCaP and MDA-MB-468 were employed with 10,000 cells/well. The cells were treated with the compounds listed in Examples which were diluted in various concentrations. Upon completion of the compounds treatment, LNCaP, DU-145, NCI-N87 cells were cultured at 37° C. under 5% CO2 for 96 hours, and MDA-MB-468 cells were cultured at 37° C. in air for 96 hours. Subsequently, the cells were observed under microscope and drug precipitation and particular findings were investigated and recorded. And then, the 96-well plate was placed at room temperature for 30 minutes, added with 20 pt/well of CellTiter-Glo solution (Cat No. G7573, Promega) and shaken for 10 minutes, followed by being subjected to the measurement using PHERAstar™ microplate reader (BMG LABTECH) according to the supplier's general luminometer protocol. Wells where only culture liquid added without cell plating were used as a negative control, whereas wells where culture liquid containing 0.1% DMSO instead of the compounds listed in Examples were used as a positive control.

STAT1 = STAT1 reporter gene assay (luciferase), U2OS stable cell line pGL4-STAT1-TA-luc, IFN-γ stimulation; format: cell-based, human; conditions: IFN-γ 50 ng/mL, 8 hours, read-out: IC50 (μM) pSTAT1
Method: 1-2) Experiment on the Inhibition of STAT1 Activity
A human osteosarcoma cell line (U2OS stable cell line; pGL4-STAT1-TA-luc), which contains a stably operating STAT1 promoter, was cultured in McCoy 5′A medium (Cat No. 16600, Life Technologies) containing 10% FBS (Cat No. SH30396, Thermo Scientific) and 1000 μg/mL G418 solution (Cat No. 04 727 894 001, Roche). The reporter gene assay using U2OS stable cell line was performed in McCoy 5′A medium containing 10% FBS without G-418 solution. U2OS stable cells were plated in two (2) white 96-well plates with 25,000 cells/50 pt in each well. The cells were cultured at 37° C., under 5% CO2 for 24 hours, and then treated with the compounds listed in Examples which were diluted in various concentrations. Subsequently, IFN-γ was added to each well with a final concentration of 50 ng/mL. Upon completion of the treatment with the compounds and IFN-γ, the cells were cultured at 37° C., under 5% CO2 for 8 hours. The plates were observed under microscope and drug precipitation and particular findings were investigated and recorded.
(§1) The luciferase assay and the cell viability assay were performed respectively with one of two plates. For the luciferase assay, the liquid media in the 96-well plate was removed, and then, 20 μL of passive cell lysis buffer was added to each well. After shaking the plate for 30 minutes, luciferase activities of each well were measured in a PHERAstar™ microplate reader (BMG LABTECH) using a luciferase assay system (Cat No. E1501, Promega). For the cell viability assay, the 96-well plate was placed at room temperature for 30 minutes, added with 20 μL/well of CellTiter-Glo solution (Cat No. G7573, Promega), and shaken for 10 minutes in order to measure cytotoxicity caused by the compounds listed in Examples with a PHERAstar™ microplate reader (BMG LABTECH). Wells without 0.1% DMSO and stimulation were used as a negative control and wells with 0.1% DMSO and stimulation were used as a positive control.
(§2) The results of evaluation on the inhibitory effect of the compounds listed in the Examples on the dimerization of STAT3 and STAT1 obtained via the STAT3 and STAT1 reporter gene assays are shown in Table 9 below.

STAT3 = STAT3 reporter gene assay (luciferase), LNCaP stable cell line pSTAT3-TA-luc, IL-6 stimulation; format: cell-based, human
Method: 1-1) Experiment on the Inhibition of STAT3 Activity
A human prostate cancer cell line (LNCaP stable cell line; plasmid pSTAT3-TA-luc), which contains a stably operating STAT3 promoter, was cultured in RPMI1640 medium (Cat No. 11875, Life Technologies) containing 10% fetal bovine serum (FBS) (Cat No. SH30396, Thermo Scientific) and 150 μg/mL G-418 solution (Cat No. 04 727 894 001, Roche). The reporter gene assay using LNCaP stable cell line was performed in RPMI1640 medium containing 3% DCC-FBS without G-418 solution. LNCaP stable cells were plated in two (2) white 96-well plates with 30,000 cells/50 μL in each well. The cells were cultured at 37° C., under 5% CO2 for 24 hours, and then treated with the compounds listed in Examples which were diluted in various concentrations. Subsequently, IL-6 was added to each well with a final concentration of 10 ng/mL. Upon completion of the treatment with the compounds and IL-6, the cells were cultured at 37° C., under 5% CO2 for 24 hours. The plates were observed under microscope and drug precipitation and particular findings were investigated and recorded.
as §1, with “one of the two plates.” for “one of two plates.”, “then, 20 μL, of passive” for “then, 20 μL of passive”
as §2

IC50 [1] [µM]	IC50 (STAT1; Homo sapiens) [µM]	IC50 (STAT3; Homo sapiens) [µM]	IC50 (STAT1) [µM]	IC50 (STAT3) [µM]	Compound
0.02	> 50	0.00065			CC(C)Oc1cc(OC(F)(F)F)cc(C(C)(C)c2cc(Br)cc(NC(=O)c3cc4cc(C(C)(C)S(C)(=O)=O)ccc4s3)c2)c1 [Example 9, N-(3-bromo-5-(2-(3-isopropoxy-5-(trifluoromethoxy)phenyl)propan-2-yl)phenyl)-5-(2-(methylsulfonyl)propan-2-yl)benzo[b]thiophene-2-carboxamide]
0.01	> 50	0.018			CC#CCOc1cc(OC(F)(F)F)cc(C(C)(C)c2cc(Cl)cc(NC(=O)c3cc4cc(C(C)(C)S(C)(=O)=O)ccc4s3)c2)c1 [Example 10, N-(3-(2-(3-(but-2-yn-1-yloxy)-5-(trifluoromethoxy)phenyl)propan-2-yl)-5-chlorophenyl)-5-(2-(methylsulfonyl)propan-2-yl)benzo[b]thiophene-2-carboxamide]
0.025	> 50	0.002			CC(C)(c1cc(Cl)cc(NC(=O)c2cc3cc(C(C)(C)S(C)(=O)=O)ccc3s2)c1)c1cc(OCC(F)(F)F)cc(OC(F)(F)F)c1 [Example 12, N-(3-chloro-5-(2-(3-(2,2,2-trifluoroethoxy)-5-(trifluoromethoxy)phenyl)propan-2-yl)phenyl)-5-(2-(methylsulfonyl)propan-2-yl)benzo[b]thiophene-2-carboxamide]
0.028	> 50	0.01			CC(C)(c1cc(Cl)cc(NC(=O)c2cc3cc(C(C)(C)S(C)(=O)=O)ccc3s2)c1)c1cc(OCC(F)F)cc(OC(F)(F)F)c1 [Example 13, N-(3-chloro-5-(2-(3-(2,2-difluoroethoxy)-5-(trifluoromethoxy)phenyl)propan-2-yl)phenyl)-5-(2-(methylsulfonyl)propan-2-yl)benzo[b]thiophene-2-carboxamide]
	> 50	0.079			CC(C)(c1ccc2sc(C(=O)Nc3cc(Cl)nc(Oc4ccc(Cl)nc4)c3)cc2c1)S(C)(=O)=O [Example 65, N-(2-chloro-6-((6-chloropyridin-3-yl)oxy)pyridin-4-yl)-5-(2-(methylsulfonyl)propan-2-yl)benzo[b]thiophene-2-carboxamide]
	> 50	0.24			CC(C)(c1ccc2sc(C(=O)Nc3cc(Oc4ccc(Cl)cc4)nc(Cl)n3)cc2c1)S(C)(=O)=O [Example 75, N-(2-chloro-6-(4-chlorophenoxy)pyrimidin-4-yl)-5-(2-(methylsulfonyl)propan-2-yl)benzo[b]thiophene-2-carboxamide]
	3.1	0.39			CC(C)(c1ccc2sc(C(=O)Nc3cc(Cl)nc(Oc4ccc(Cl)cc4)n3)cc2c1)S(C)(=O)=O [Example 76, N-(6-chloro-2-(4-chlorophenoxy)pyrimidin-4-yl)-5-(2-(methylsulfonyl)propan-2-yl)benzo[b]thiophene-2-carboxamide]
	> 50	0.11			CC(C)(c1ccc2sc(C(=O)Nc3cc(Cl)nc(Oc4ccc(Cl)cn4)c3)cc2c1)S(C)(=O)=O [Example 85, N-(2-chloro-6-((5-chloropyridin-2-yl)oxy)pyridin-4-yl)-5-(2-(methylsulfonyl)propan-2-yl)benzo[b]thiophene-2-carboxamide]
	> 50	0.0097			CC#Cc1cc(OC(F)(F)F)cc(C(C)(C)c2cc(Cl)cc(NC(=O)c3cc4cc(C(C)(C)S(C)(=O)=O)ccc4s3)c2)c1 [Example 87, N-(3-chloro-5-(2-(3-(prop-1-yn-1-yl)-5-(trifluoromethoxy)phenyl)propan-2-yl)phenyl)-5-(2-(methylsulfonyl)propan-2-yl)benzo[b]thiophene-2-carboxamide]
	> 50	0.011			COc1cc(OC(F)(F)F)cc(C(C)(C)c2cc(NC(=O)c3cc4cc(C(C)(C)S(C)(=O)=O)ccc4s3)cc(Cl)n2)c1 [Example 90, N-(2-chloro-6-(2-(3-methoxy-5-(trifluoromethoxy)phenyl)propan-2-yl)pyridin-4-yl)-5-(2-(methylsulfonyl)propan-2-yl)benzo[b]thiophene-2-carboxamide]
	> 50	0.0051			COc1cc(OC(F)(F)F)cc(C(C)(C)c2cc(Cl)cc(NC(=O)c3cc4cc(C(C)(C)S(C)(=O)=O)ccc4s3)n2)c1 [Example 91, N-(4-chloro-6-(2-(3-methoxy-5-(trifluoromethoxy)phenyl)propan-2-yl)pyridin-2-yl)-5-(2-(methylsulfonyl)propan-2-yl)benzo[b]thiophene-2-carboxamide]
	14.5	2.1			CC(C)(c1ccc2sc(C(=O)Nc3cc(Cl)nc(OC4CCN5CCCC5C4)c3)cc2c1)S(C)(=O)=O (centres unmarked) [Example 102, N-(2-chloro-6-((octahydroindolizin-7-yl)oxy)pyridin-4-yl)-5-(2-(methylsulfonyl)propan-2-yl)benzo[b]thiophene-2-carboxamide]
	8.6	6			COC(=O)c1cc(Oc2cc(NC(=O)c3cc4cc(C(C)(C)S(C)(=O)=O)ccc4s3)cc(Cl)n2)no1 [Example 118, methyl 3-((6-chloro-4-(5-(2-(methylsulfonyl)propan-2-yl)benzo[b]thiophene-2-carboxamido)pyridin-2-yl)oxy)isoxazole-5-carboxylate]
			> 50	0.0022	N-(3-chloro-5-(2-(3-chloro-5-methoxyphenyl)propan-2-yl)phenyl)-5-(2-(methylsulfonyl)propan-2-yl)benzo[b]thiophene-2-carboxamide [Example 55]

Compound	IC50 [1] [µM]	IC50 (STAT1; Homo sapiens) [µM]	IC50 (STAT3; Homo sapiens) [µM]	IC50 (STAT1) [µM]	IC50 (STAT3) [µM]
CC(C)COc1cc(OC(F)(F)F)cc(C(C)(C)c2cc(Cl)cc(NC(=O)c3cc4cc(C(C)(C)S(C)(=O)=O)ccc4s3)c2)c1 [Example 11, N-(3-chloro-5-(2-(3-isobutoxy-5-(trifluoromethoxy)phenyl)propan-2-yl)phenyl)-5-(2-(methylsulfonyl)propan-2-yl)benzo[b]thiophene-2-carboxamide]	0.011	> 50	0.0021		

From patent publication US10023591B2, “Heterocyclic derivatives and use thereof” (C&C RESEARCH LABORATORIES, priority 2014, dated 2018)
